Test results taken from ChEMBL document CHEMBL4507264, “Data for DCP probe BAY-7598” (2021).

Key:
[1] = molecular target: Ankyrin repeat and protein kinase domain-containing protein 1 (Homo sapiens) (UniProt Q8NFD2); conditions: Compound concentration 1000.0 nM
[2] = system: Mast/stem cell growth factor receptor Kit (Homo sapiens), P10721 [A829P]; conditions: Compound concentration 1000.0 nM
[3] = molecular target: Protein-tyrosine kinase 2-beta (Homo sapiens) (UniProt Q14289); conditions: Compound concentration 1000.0 nM
[4] = system: ALK tyrosine kinase receptor (Homo sapiens), Q9UM73 [L1196M]; conditions: Compound concentration 1000.0 nM
[5] = molecular target: MAP kinase-activated protein kinase 2 (Homo sapiens) (UniProt P49137); conditions: Compound concentration 1000.0 nM
MAP kinase-activated protein kinase 2 (Homo sapiens), sequence (P49137 whole entry, looked up): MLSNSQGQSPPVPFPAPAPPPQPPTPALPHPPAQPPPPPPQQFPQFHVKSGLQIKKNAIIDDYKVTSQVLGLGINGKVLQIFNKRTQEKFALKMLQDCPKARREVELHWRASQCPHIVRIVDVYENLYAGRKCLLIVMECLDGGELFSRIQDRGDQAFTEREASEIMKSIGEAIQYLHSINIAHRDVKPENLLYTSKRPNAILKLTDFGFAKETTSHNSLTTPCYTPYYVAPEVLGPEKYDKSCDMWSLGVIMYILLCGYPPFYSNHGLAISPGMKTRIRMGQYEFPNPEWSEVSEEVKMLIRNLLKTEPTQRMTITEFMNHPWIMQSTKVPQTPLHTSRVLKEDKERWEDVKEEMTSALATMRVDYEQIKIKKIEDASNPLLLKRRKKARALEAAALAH

[6] = molecular target: Histamine H2 receptor (Homo sapiens) (UniProt P25021); conditions: Compound concentration 10.0 uM
[7] = molecular target: Ephrin type-B receptor 1 (Homo sapiens) (UniProt P54762); conditions: Compound concentration 1000.0 nM
[8] = molecular target: Rho-associated protein kinase 2 (Homo sapiens) (UniProt O75116); conditions: Compound concentration 1000.0 nM
[9] = molecular target: Activated CDC42 kinase 1 (Homo sapiens) (UniProt Q07912); conditions: Compound concentration 1000.0 nM
Activated CDC42 kinase 1 (Homo sapiens), sequence (Q07912 whole entry, looked up): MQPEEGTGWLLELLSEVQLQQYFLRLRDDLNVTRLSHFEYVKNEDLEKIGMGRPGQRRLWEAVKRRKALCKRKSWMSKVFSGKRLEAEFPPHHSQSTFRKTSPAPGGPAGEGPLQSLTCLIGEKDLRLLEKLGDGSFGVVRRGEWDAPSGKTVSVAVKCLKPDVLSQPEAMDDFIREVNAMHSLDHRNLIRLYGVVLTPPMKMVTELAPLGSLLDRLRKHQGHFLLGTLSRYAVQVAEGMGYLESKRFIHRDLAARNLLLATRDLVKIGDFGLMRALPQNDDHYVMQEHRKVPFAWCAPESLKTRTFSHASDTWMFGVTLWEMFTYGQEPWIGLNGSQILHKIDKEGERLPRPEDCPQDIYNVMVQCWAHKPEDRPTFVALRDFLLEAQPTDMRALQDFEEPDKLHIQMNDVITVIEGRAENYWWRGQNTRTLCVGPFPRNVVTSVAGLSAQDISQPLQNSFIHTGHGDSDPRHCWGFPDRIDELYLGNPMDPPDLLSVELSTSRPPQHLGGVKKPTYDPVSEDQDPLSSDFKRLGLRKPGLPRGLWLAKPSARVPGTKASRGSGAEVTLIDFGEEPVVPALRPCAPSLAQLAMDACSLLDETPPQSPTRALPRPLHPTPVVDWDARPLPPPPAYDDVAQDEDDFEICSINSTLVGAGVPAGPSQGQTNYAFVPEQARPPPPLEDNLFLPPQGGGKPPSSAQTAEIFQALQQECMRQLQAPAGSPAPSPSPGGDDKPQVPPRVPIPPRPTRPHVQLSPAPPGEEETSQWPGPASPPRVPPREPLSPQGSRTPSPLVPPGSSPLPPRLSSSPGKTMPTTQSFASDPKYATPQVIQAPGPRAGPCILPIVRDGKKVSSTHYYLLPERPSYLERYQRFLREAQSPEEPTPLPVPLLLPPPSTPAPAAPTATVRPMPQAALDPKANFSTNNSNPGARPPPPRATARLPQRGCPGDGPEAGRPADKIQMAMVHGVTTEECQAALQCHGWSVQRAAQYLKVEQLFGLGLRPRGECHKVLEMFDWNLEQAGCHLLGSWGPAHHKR

[10] = molecular target: Inhibitor of nuclear factor kappa-B kinase subunit epsilon (Homo sapiens) (UniProt Q14164); conditions: Compound concentration 1000.0 nM
[11] = molecular target: Homeodomain-interacting protein kinase 4 (Homo sapiens) (UniProt Q8NE63); conditions: Compound concentration 1000.0 nM
[12] = molecular target: Cyclin-dependent kinase 17 (Homo sapiens) (UniProt Q00537); conditions: Compound concentration 1000.0 nM
[13] = molecular target: Serine/threonine-protein kinase SBK1 (Homo sapiens) (UniProt Q52WX2); conditions: Compound concentration 1000.0 nM
[14] = system: Phosphatidylinositol 4,5-bisphosphate 3-kinase catalytic subunit alpha isoform (Homo sapiens), P42336 [H1047L]; conditions: Compound concentration 1000.0 nM
[15] = molecular target: RAF proto-oncogene serine/threonine-protein kinase (Homo sapiens) (UniProt P04049); conditions: Compound concentration 1000.0 nM
[16] = system: Phosphatidylinositol 4,5-bisphosphate 3-kinase catalytic subunit alpha isoform (Homo sapiens), P42336 [C420R]; conditions: Compound concentration 1000.0 nM
[17] = molecular target: Mitogen-activated protein kinase kinase kinase 2 (Homo sapiens) (UniProt Q9Y2U5); conditions: Compound concentration 1000.0 nM
[18] = molecular target: Serine/threonine-protein kinase SIK2 (Homo sapiens) (UniProt Q9H0K1); conditions: Compound concentration 1000.0 nM
[19] = system: Tyrosine-protein kinase ABL1 (Homo sapiens), P00519 [Y253F]; conditions: Compound concentration 1000.0 nM
[20] = system: Tyrosine-protein kinase ABL1 (Homo sapiens), P00519 [F317L]; conditions: Compound concentration 1000.0 nM
[21] = molecular target: Tyrosine-protein kinase JAK1 (Homo sapiens) (UniProt P23458); conditions: Compound concentration 1000.0 nM
[22] = system: Tyrosine-protein kinase ABL1 (Homo sapiens), P00519 [E255K]; conditions: Compound concentration 1000.0 nM
[23] = molecular target: Insulin receptor-related protein (Homo sapiens) (UniProt P14616); conditions: Compound concentration 1000.0 nM
[24] = molecular target: Tyrosine-protein kinase HCK (Homo sapiens) (UniProt P08631); conditions: Compound concentration 1000.0 nM
[25] = molecular target: Tyrosine-protein kinase ABL2 (Homo sapiens) (UniProt P42684); conditions: Compound concentration 1000.0 nM
[26] = molecular target: Serine/threonine-protein kinase PAK 1 (Homo sapiens) (UniProt Q13153); conditions: Compound concentration 1000.0 nM
[27] = molecular target: Serine/threonine-protein kinase WNK2 (Homo sapiens) (UniProt Q9Y3S1); conditions: Compound concentration 1000.0 nM
[28] = molecular target: Cyclin-dependent kinase 4 (Homo sapiens) (UniProt P11802); conditions: Compound concentration 1000.0 nM
[29] = system: Proto-oncogene tyrosine-protein kinase receptor Ret (Homo sapiens), P07949 [M918T]; conditions: Compound concentration 1000.0 nM
[30] = molecular target: SRSF protein kinase 2 (Homo sapiens) (UniProt P78362); conditions: Compound concentration 1000.0 nM
[31] = molecular target: Cyclin-dependent kinase 11B (Homo sapiens) (UniProt P21127); conditions: Compound concentration 1000.0 nM
[32] = molecular target: Ephrin type-A receptor 6 (Homo sapiens) (UniProt Q9UF33); conditions: Compound concentration 1000.0 nM
[33] = molecular target: Mitogen-activated protein kinase 13 (Homo sapiens) (UniProt O15264); conditions: Compound concentration 1000.0 nM
[34] = molecular target: Mitogen-activated protein kinase 4 (Homo sapiens) (UniProt P31152); conditions: Compound concentration 1000.0 nM
[35] = molecular target: Muscle, skeletal receptor tyrosine-protein kinase (Homo sapiens) (UniProt O15146); conditions: Compound concentration 1000.0 nM
[36] = molecular target: Citron Rho-interacting kinase (Homo sapiens) (UniProt O14578); conditions: Compound concentration 1000.0 nM
Citron Rho-interacting kinase (Homo sapiens), sequence (O14578 whole entry): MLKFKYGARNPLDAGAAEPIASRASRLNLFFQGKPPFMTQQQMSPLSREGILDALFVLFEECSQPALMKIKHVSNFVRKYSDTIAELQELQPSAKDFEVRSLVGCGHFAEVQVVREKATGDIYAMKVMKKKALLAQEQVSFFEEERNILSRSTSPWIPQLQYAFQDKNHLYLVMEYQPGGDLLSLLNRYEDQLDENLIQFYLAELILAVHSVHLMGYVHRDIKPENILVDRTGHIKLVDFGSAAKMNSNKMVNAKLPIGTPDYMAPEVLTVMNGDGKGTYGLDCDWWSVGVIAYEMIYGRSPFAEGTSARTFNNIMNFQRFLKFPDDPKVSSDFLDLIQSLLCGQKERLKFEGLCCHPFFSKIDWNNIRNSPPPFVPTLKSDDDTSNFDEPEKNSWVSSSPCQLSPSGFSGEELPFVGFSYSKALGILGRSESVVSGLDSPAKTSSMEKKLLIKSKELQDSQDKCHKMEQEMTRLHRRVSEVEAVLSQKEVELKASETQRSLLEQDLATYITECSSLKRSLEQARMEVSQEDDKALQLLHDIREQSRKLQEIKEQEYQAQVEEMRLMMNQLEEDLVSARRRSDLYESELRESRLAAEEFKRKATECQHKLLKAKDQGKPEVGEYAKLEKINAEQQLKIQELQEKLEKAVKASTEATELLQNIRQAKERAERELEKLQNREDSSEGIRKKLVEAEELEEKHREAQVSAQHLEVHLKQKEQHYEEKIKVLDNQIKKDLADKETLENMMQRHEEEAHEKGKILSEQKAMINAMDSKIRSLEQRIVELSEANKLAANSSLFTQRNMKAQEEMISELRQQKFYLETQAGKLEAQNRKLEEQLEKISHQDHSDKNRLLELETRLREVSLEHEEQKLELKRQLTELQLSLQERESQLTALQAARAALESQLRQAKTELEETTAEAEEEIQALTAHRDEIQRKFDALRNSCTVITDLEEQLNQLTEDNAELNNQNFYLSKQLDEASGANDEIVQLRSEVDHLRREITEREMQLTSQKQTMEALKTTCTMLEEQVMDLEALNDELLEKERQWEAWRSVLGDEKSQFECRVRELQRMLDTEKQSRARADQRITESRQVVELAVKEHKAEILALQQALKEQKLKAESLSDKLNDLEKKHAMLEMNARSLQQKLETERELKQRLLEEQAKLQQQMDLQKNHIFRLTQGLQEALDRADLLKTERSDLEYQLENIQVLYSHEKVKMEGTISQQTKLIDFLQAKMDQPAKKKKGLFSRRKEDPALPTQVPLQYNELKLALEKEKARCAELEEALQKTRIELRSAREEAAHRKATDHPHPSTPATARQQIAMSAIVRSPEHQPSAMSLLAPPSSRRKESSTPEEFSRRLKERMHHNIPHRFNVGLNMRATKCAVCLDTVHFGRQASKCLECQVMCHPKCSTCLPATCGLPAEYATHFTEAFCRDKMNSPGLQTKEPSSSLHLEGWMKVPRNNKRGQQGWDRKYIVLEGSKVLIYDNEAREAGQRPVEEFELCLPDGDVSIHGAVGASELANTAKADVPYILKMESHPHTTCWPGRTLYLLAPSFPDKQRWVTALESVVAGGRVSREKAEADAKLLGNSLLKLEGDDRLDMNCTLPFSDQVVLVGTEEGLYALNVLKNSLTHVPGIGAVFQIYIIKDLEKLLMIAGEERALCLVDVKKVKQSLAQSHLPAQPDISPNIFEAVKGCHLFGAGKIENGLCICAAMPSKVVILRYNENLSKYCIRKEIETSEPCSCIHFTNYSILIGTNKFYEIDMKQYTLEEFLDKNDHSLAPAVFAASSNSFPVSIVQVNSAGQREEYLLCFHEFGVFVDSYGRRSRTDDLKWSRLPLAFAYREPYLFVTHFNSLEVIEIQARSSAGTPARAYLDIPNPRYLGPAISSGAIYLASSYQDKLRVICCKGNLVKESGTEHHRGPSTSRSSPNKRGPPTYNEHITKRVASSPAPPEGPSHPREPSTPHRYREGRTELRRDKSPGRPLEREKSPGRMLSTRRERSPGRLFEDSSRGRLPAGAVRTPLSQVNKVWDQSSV

[37] = molecular target: SNF-related serine/threonine-protein kinase (Homo sapiens) (UniProt Q9NRH2); conditions: Compound concentration 1000.0 nM
[38] = molecular target: Histamine H3 receptor (Homo sapiens) (UniProt Q9Y5N1); conditions: Compound concentration 10.0 uM
Histamine H3 receptor (Homo sapiens), sequence (Q9Y5N1 whole entry): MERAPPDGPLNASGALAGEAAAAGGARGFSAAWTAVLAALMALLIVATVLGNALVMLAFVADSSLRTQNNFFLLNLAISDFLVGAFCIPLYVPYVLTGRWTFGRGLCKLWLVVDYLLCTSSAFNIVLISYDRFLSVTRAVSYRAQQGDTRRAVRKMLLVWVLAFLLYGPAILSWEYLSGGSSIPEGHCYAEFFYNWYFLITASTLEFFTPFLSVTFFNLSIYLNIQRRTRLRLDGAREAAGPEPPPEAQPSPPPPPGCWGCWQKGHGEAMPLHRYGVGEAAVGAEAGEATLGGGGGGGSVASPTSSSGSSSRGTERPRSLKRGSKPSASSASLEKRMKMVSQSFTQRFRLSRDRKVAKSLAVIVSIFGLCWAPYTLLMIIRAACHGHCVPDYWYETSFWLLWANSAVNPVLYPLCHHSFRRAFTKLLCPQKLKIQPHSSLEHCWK

[39] = molecular target: Activin receptor type-2B (Homo sapiens) (UniProt Q13705); conditions: Compound concentration 1000.0 nM
Activin receptor type-2B (Homo sapiens), sequence (Q13705 whole entry): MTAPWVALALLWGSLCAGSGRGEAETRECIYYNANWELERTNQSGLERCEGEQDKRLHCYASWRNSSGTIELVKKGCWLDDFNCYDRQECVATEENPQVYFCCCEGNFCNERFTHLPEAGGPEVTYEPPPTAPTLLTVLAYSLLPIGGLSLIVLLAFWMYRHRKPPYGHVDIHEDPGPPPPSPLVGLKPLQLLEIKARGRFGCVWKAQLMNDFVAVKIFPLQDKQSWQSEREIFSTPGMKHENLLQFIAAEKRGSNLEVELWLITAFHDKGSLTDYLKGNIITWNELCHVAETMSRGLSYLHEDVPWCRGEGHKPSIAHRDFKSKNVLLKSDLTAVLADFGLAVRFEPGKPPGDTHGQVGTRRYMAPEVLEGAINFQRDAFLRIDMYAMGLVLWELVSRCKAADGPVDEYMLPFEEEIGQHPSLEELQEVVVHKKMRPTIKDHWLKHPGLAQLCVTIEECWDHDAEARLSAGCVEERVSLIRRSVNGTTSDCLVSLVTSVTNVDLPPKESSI

[40] = system: Epidermal growth factor receptor (Homo sapiens), P00533 [T790M]; conditions: Compound concentration 1000.0 nM
[41] = molecular target: Calcium/calmodulin-dependent protein kinase type 1 (Homo sapiens) (UniProt Q14012); conditions: Compound concentration 1000.0 nM
[42] = molecular target: Serine/threonine-protein kinase OSR1 (Homo sapiens) (UniProt O95747); conditions: Compound concentration 1000.0 nM
Serine/threonine-protein kinase OSR1 (Homo sapiens), sequence (O95747 2-527 limits assumed): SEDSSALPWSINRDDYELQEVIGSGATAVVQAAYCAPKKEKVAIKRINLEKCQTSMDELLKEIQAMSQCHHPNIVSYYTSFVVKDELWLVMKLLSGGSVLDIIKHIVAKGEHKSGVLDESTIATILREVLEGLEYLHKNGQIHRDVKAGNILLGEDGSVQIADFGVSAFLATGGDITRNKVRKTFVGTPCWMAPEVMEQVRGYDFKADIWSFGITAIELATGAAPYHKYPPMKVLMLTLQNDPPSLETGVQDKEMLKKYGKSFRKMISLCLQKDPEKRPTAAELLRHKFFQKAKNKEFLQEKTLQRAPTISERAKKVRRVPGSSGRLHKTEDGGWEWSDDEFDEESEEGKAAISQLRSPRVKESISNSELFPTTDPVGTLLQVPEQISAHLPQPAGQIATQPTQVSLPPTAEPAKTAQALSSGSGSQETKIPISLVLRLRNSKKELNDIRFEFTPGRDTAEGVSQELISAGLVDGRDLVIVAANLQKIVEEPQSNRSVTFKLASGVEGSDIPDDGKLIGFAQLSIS

[43] = molecular target: Mitogen-activated protein kinase kinase kinase kinase 5 (Homo sapiens) (UniProt Q9Y4K4); conditions: Compound concentration 1000.0 nM
[44] = molecular target: Kappa-type opioid receptor (Homo sapiens) (UniProt P41145); conditions: Compound concentration 10.0 uM
[45] = molecular target: Misshapen-like kinase 1 (Homo sapiens) (UniProt Q8N4C8); conditions: Compound concentration 1000.0 nM

O=C(O)[C@@H]1[C@@H](Cn2nnc3ccccc3c2=O)CC[C@H]1C(=O)c1ccc(OCCC2CCOCC2)cc1 [BAY-694]
inactive: residual activity [1] 100% | residual activity [2] 90% | residual activity [3] 100% | residual activity [4] 93% | residual activity [5] 100% | inhibition [6] 17.5% | residual activity [7] 100% | residual activity [8] 100% | residual activity [9] 100% | residual activity [10] 100% | residual activity [11] 100% | residual activity [12] 88% | residual activity [13] 100% | residual activity [14] 84% | residual activity [15] 100% | residual activity [16] 100% | residual activity [17] 100% | residual activity [18] 91% | residual activity [19] 100% | residual activity [20] 92% | residual activity [21] 79% | residual activity [22] 84% | residual activity [23] 100% | residual activity [24] 100% | residual activity [25] 92% | residual activity [26] 95% | residual activity [27] 82% | residual activity [28] 86% | residual activity [29] 100% | residual activity [30] 100% | residual activity [31] 99% | residual activity [32] 97% | residual activity [33] 94% | residual activity [34] 100% | residual activity [35] 100% | residual activity [36] 92% | residual activity [37] 100% | inhibition [38] 4.06% | residual activity [39] 100% | residual activity [40] 94% | residual activity [41] 92% | residual activity [42] 100% | residual activity [43] 100% | inhibition [44] 8.5% | residual activity [45] 100%

O=C(O)[C@H]1[C@H](Cn2nnc3ccccc3c2=O)CC[C@@H]1C(=O)c1ccc(OCCC2CCOCC2)cc1 [BAY-7598]
inactive: residual activity [1] 100% | residual activity [2] 84% | residual activity [3] 75% | residual activity [4] 81% | residual activity [5] 89% | inhibition [6] 12.6% | residual activity [7] 100% | residual activity [8] 80% | residual activity [9] 100% | residual activity [10] 90% | residual activity [11] 100% | residual activity [12] 74% | residual activity [13] 68% | residual activity [14] 71% | residual activity [15] 91% | residual activity [16] 100% | residual activity [17] 100% | residual activity [18] 100% | residual activity [19] 100% | residual activity [20] 81% | residual activity [21] 88% | residual activity [22] 75% | residual activity [23] 81% | residual activity [24] 70% | residual activity [25] 99% | residual activity [26] 83% | residual activity [27] 99% | residual activity [28] 96% | residual activity [29] 76% | residual activity [30] 100% | residual activity [31] 88% | residual activity [32] 85% | residual activity [33] 97% | residual activity [34] 82% | residual activity [35] 95% | residual activity [36] 77% | residual activity [37] 95% | inhibition [38] -2.95% | residual activity [39] 79% | residual activity [40] 77% | residual activity [41] 100% | residual activity [42] 77% | residual activity [43] 92% | inhibition [44] -3.04% | residual activity [45] 100%
